Patent publication US20100278733A1, “COMPOSITION FOR DIAGNOSIS OF AMYLOID-RELATED DISEASE” (priority 2007, published 2010)

What was measured:
Aβ(1-42) aggregate [1] = molecular target: T1, Aβ(1-42) aggregate (Homo sapiens, UniProt P05067); experiment: In-vitro binding inhibition experiment using Aβ(1-42) aggregate (Example 1); settings: compound numbers of Example 1
T1 construct: Amyloid β protein (Human, 1-42) [TFA form] was purchased from Peptide Institute, Inc; purchased Peptide Institute, Inc
Experimental: (§1) Amyloid β protein (Human, 1-42) [TFA form] was purchased from Peptide Institute, Inc., and special grade reagents were used as other reagents. ^1H-NMR was measured using Varian Gemini 300 and tetramethylsilane as an internal standard substance.
The Aβ(1-42) aggregate was dissolved in a buffer containing 10 mM sodium phosphate and 1 mM EDTA (pH 7.4) at a concentration of 0.5 mg/mL, and the mixture was incubated at 37° C. for 36 to 42 h. The binding inhibition experiment was performed using 12×75-mm borosilicate glass tubes. 850 μL of 10% ethanol solution, 50 μL of an Aβ-binding substance ([^125I]4-dimethylamino-4′ iodochalcone) (10% aqueous ethanol), 50 μL (57 nM) of Aβ(1-42) aggregate solution, and 50 μL of 10% aqueous ethanol each containing Compounds 1 and 4 at various concentrations (0.003 to 781 nM) were mixed, and the mixture was allowed to stand at room temperature for 3 h. Further, nonspecific binding was determined using 4-dimethylamino-4′-iodochalcone (400 nM), a nonradioactive compound. Aβ aggregate-bound chalcone derivatives and nonbound chalcone derivatives were separated with a Brandel M-24R cell harvester using a Whatman GF/B filter. The radioactivities of substances remaining on the filter after filtration were measured with a γ counter. […]

Aβ(1-42) aggregate [2] = molecular target: T1, Aβ(1-42) aggregate; experiment: In-vitro binding inhibition experiment using Aβ(1-42) aggregate (Reference Example 2); settings: ligand [^125I]4-dimethylamino-4′-iodochalcone; compound numbers of Reference Example 2; read-out: Inhibition constant (Ki, nM) (mean ± SE)
Experimental: as §1
The Aβ(1-42) aggregate was dissolved in a buffer containing 10 mM sodium phosphate and 1 mM EDTA (pH 7.4) at a concentration of 0.5 mg/mL, and the mixture was incubated at 37° C. for 36 to 42 h. The binding inhibition experiment was performed using 12×75-mm borosilicate glass tubes. 850 μL of 10% ethanol solution, 50 μL of [^125I]4-dimethylamino-4′-iodochalcone (in 10% aqueous ethanol), 50 μL (29 nM) of an Aβ(1-42) aggregate solution, and 50 μL of a solution of fluorine-containing chalcone derivatives in 10% aqueous ethanol prepared at various concentrations were mixed, and the mixture was allowed to stand at room temperature for 3 h. Further, nonspecific binding was calculated using 4-dimethylamino-4′iodochalcone (400 nM), a nonradioactive compound. Aβ aggregate-bound chalcone derivatives and nonbound chalcone derivatives were separated with a Brandel M-24R cell harvester using Whatman GF/B filters. Radioactivities of substances remaining on the filter were measured with a γ counter. The 50% inhibitory concentrations were calculated using Graph Pad Prism (graph pad software), and inhibition constants (Ki values) were calculated by Cheng-Prusoff equation, Ki=IC50/(1+[L]/Kd). In this equation, the concentration of [^125I]4-dimethylamino-4′-iodochalcone used in the experiment was used for [L], and the dissociation constant of [^125I]4-dimethylamino-4′-iodochalcone against the Aβ(1-42) aggregate was used for Kd.

[3] = In-vivo radioactivity distribution experiment in normal mice (Reference Example 2); settings: Reference Example 2 numbering; for Radioactivity concentration in the brain of mice: intravenous
Experimental: Labeled compounds, [^11C]Compounds 23 and 7, were diluted with physiological saline containing 10% ethanol. 100 μL of each of the labeled compounds was intravenously infused to five 5-week-old male ddY mice per group, the animals were decapitated at 2, 10, 30, or 60 min, blood was collected, and then weights and radioactivities thereof were measured.

Aβ(1-42) aggregate [4] = molecular target: T1, Aβ(1-42) aggregate; experiment: Examination of binding site by binding inhibition experiment using Aβ(1-42) aggregate (Example 2); settings: in words, FIG. 10
Experimental: Aβ(1-42) was dissolved in 10 mM phosphate buffer containing 1 mM EDTA (pH 7.4) at a concentration of 0.25 mg/mL, and the mixture was incubated at 37° C. for 42 h to prepare an Aβ(1-42) aggregate.
[…] of 10% EtOH solution, […] of [^125I]CL-NMe2 solution, […] of a solution of congo red, thioflavine T, or compound 14 at various concentrations (0 to 20 mM) were mixed, […] of an Aβ(1-42) aggregate solution was finally added, and the mixture was allowed to stand at room temperature for 3 h. Aβ(1-42) aggregate-bound compounds and nonbound compounds were separated with a Brandel M-24R cell harvester using a Whatman GF/B filter. Radioactivities remaining on the filter after filtration were measured with a γ-counter, and inhibition curves were created using Graph Pad Prism 4.0 to calculate inhibition constants.

T1 sequence (P05067 672-713 limits assumed): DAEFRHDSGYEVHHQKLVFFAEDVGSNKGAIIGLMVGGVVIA

With CN(C)c1ccc(/C=C/C(=O)c2ccc(I)s2)cc1 [Compound 1 in Example 1, (E)-3-(4-(dimethylamino)phenyl)-1-(5-iodothiophen-2-yl)prop-2-en-1-one] the “binding property to the amyloid aggregate” value (Aβ(1-42) aggregate [1]; in words) was “very strong binding property” and the Ki (Aβ(1-42) aggregate [1]; ligand [^125I]4-dimethylamino-4′-iodochalcone, mean and standard deviation of three experiments, read-out: Inhibition constants (Ki) for binding to Aβ(1-42) aggregate) was 5.2 ± 0.7 nM.
Molecule CN(C)c1ccc(/C=C/C(=O)c2ccc(OCCF)cc2)cc1 [Compound 3 in Reference Example 2, (E)-1-(4-(2-fluoroethoxy)phenyl)-3-(4-(dimethylamino)phenyl)prop-2-en-1-one] has a Ki (Aβ(1-42) aggregate [2]) of 29 ± 2 nM.
Work on CN(C)c1ccc(/C=C/C(=O)c2ccc(OCCOCCF)cc2)cc1 [Compound 5 in Reference Example 2, (E)-1-(4-(2-(2-fluoroethoxy)ethoxy)phenyl)-3-(4-(dimethylamino)phenyl)prop-2-en-1-one] yielded a Ki (Aβ(1-42) aggregate [2]) of 19 ± 1 nM.
Molecule Nc1ccc(/C=C/C(=O)c2ccc(OCCF)cc2)cc1 [Compound 11 in Reference Example 2, (E)-1-(4-(2-fluoroethoxy)phenyl)-3-(4-aminophenyl)prop-2-en-1-one] has a Ki (Aβ(1-42) aggregate [2]) of 553 ± 22 nM.
In the case of Nc1ccc(/C=C/C(=O)c2ccc(OCCOCCF)cc2)cc1 [Compound 16 in Reference Example 2, (E)-1-(4-(2-(2-fluoroethoxy)ethoxy)phenyl)-3-(4-aminophenyl)prop-2-en-1-one], the Ki (Aβ(1-42) aggregate [2]) is reported as 1000 ± 29 nM.
CNc1ccc(/C=C/C(=O)c2ccc(OCCOCCF)cc2)cc1 [Compound 17 in Reference Example 2, (E)-1-(4-(2-(2-fluoroethoxy)ethoxy)phenyl)-3-(4-(methylamino)phenyl)prop-2-en-1-one] showed a Ki (Aβ(1-42) aggregate [2]) of 187 ± 3 nM.
In the case of CN(C)c1ccc(/C=C/C(=O)c2ccc(F)cc2)cc1 [Compound 23 in Reference Example 2, (E)-3-(4-(dimethylamino)phenyl)-1-(4-fluorophenyl) prop-en-1-one], the “ratio of brain radioactivity at 60 min to that at 2 min after administration” value [3] is reported as 28.3%, the “ratio of the radioactivity remaining in the brain at 30 min after administration to that at 2 min after administration” value [3] is reported as 28.3% and the “Radioactivity concentration in the brain of mice” value (shortened to “Radioactivity concentration”) ([3]; 2 min after administration, listed as [^11C] 23) is reported as 3.68 ± 0.35 % ID/g. For the same molecule, the “Radioactivity concentration” value ([3]; 2 min after administration, listed as [^11C]Compound 23) was 3.68 % ID/g, the “Radioactivity concentration” value ([3]; 10 min after administration) was 1.53 ± 0.14 % ID/g and the “Radioactivity concentration” value ([3]; 30 min after administration) was 1.04 ± 0.15 % ID/g. For the same molecule, the “Radioactivity concentration” value ([3]; 60 min after administration, listed as [^11C] 23) was 1.04 ± 0.20 % ID/g and the “Radioactivity concentration” value ([3]; 60 min after administration, listed as [^11C]Compound 23) was 1.04 % ID/g.
In the case of Nc1c(/N=N/c2ccc(-c3ccc(/N=N/c4cc(S(=O)(=O)O)c5ccccc5c4N)cc3)cc2)cc(S(=O)(=O)O)c2ccccc12 [congo red], the “inhibition of binding of [^125I]CL-NMe2 to the Aβ(1-42) aggregate” value (Aβ(1-42) aggregate [4]) is reported as “did not inhibit binding of [^125I]CL-NMe2 to the Aβ(1-42) aggregate to a large extent”.
For Cc1ccc2c(c1)sc(-c1ccc(N(C)C)cc1)[n+]2C.[Cl-] [thioflavine T], the “inhibition of binding of [^125I]CL-NMe2 to the Aβ(1-42) aggregate” value (Aβ(1-42) aggregate [4]) was “did not inhibit binding of [^125I]CL-NMe2 to the Aβ(1-42) aggregate to a large extent”.
